Measurements: publication PMC10174618, “Monoterpenoid aryl hydrocarbon receptor allosteric antagonists protect against ultraviolet skin damage in female mice” (Nature Communications, 2023)

Tests used:
HASPIN = HASPIN (Homo sapiens, UniProt Q8TF76); assay: biochemical; set-up: KINOMEscan scanMAX active site-directed competition binding assay, percent of control, 468 kinases; conditions: competition binding, percent of control
Procedure: (§1) The KINOMEscan^TM screening platform (scanMAX assay) employs a proprietary active site-directed competition binding assay that quantitatively measures the interactions between test compounds (here 100 μM S-carvone) and 468 human protein kinases. The assay was performed at Eurofins DiscoverX Corp. (Fremont, CA, USA). Blocking protein kinase C (PKC) activity was reported to inhibit the transcription of CYP1A1 but to exert no effect on the nuclear translocation of AhR[26], which was also the case here with carvones. Therefore, we tested whether carvones inhibit PKC catalytic activity. […] We also evaluated the interaction between 100 μM S-carvone and 468 human protein kinases, employing KINOMEscan^TM (scanMAX assay), a proprietary active site-directed competition binding assay. The minimal inhibitory threshold used by the screening platform KINOMEscan^TM is 35% of the control kinase activity. Among 468 kinases tested, 467 were above the 35% cutoff. Tyrosine kinase 2 TK2 (JH2 domain pseudokinase) activity was inhibited to 27% of the control activity, but this kinase is not relevant to the regulation of transcription activity (Fig. 5B; Figure S9). Overall, we excluded the possibility that the effects of carvones on AhR signaling are caused indirectly by the inhibition of the human kinome, particularly PKC.

PIM2 = PIM2 (Homo sapiens, UniProt Q9P1W9); assay: biochemical; set-up: KINOMEscan scanMAX active site-directed competition binding assay, percent of control, 468 kinases; conditions: competition binding, percent of control
Chain of PIM2 (Q9P1W9 whole entry): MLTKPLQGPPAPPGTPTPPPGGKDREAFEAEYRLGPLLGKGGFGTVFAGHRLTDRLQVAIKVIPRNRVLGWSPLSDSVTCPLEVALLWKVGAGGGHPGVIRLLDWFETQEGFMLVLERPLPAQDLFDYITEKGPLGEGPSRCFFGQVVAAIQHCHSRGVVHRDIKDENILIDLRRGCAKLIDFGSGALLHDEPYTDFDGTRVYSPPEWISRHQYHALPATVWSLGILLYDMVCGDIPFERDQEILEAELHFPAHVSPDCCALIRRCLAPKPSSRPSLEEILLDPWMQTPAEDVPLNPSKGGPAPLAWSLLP
Procedure: as §1

MAP3K15 = MAP3K15 (Homo sapiens, UniProt Q6ZN16); assay: biochemical; set-up: KINOMEscan scanMAX active site-directed competition binding assay, percent of control, 468 kinases; conditions: competition binding, percent of control
Chain of MAP3K15 (Q6ZN16 whole entry): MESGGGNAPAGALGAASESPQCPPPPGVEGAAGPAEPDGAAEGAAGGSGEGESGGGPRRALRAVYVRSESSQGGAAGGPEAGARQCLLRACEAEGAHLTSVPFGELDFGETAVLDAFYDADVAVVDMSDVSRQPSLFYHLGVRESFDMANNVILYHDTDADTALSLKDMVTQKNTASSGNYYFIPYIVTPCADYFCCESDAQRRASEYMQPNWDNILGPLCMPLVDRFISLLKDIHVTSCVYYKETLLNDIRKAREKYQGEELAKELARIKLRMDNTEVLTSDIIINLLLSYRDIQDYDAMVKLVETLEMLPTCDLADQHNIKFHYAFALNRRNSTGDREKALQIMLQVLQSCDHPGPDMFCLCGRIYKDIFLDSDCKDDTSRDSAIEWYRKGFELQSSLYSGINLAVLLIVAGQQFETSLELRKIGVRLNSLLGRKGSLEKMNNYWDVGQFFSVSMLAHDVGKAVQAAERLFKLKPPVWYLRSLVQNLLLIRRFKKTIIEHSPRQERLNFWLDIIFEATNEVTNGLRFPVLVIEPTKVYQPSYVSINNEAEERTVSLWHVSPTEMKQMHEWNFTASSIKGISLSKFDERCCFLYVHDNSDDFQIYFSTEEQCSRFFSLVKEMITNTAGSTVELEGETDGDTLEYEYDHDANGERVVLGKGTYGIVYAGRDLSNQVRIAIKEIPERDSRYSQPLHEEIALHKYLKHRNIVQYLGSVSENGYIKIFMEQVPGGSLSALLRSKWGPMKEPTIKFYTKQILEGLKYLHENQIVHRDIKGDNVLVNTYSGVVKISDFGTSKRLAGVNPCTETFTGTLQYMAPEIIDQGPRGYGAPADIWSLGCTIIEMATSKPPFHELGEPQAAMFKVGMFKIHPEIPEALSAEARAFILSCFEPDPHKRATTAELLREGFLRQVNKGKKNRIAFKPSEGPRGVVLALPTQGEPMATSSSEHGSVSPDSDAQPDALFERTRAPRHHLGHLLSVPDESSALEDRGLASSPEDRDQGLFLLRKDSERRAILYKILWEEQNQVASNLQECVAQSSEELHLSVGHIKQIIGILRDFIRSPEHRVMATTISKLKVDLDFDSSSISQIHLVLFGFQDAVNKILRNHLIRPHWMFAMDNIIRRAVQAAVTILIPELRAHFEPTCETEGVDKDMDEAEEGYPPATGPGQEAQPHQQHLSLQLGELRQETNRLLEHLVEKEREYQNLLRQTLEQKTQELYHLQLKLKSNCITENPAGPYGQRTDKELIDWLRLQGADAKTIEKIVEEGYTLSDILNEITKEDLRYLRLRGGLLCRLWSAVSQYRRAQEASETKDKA
Procedure: as §1

PLK4 = PLK4 (Homo sapiens, UniProt O00444); assay: biochemical; set-up: KINOMEscan scanMAX active site-directed competition binding assay, percent of control, 468 kinases; conditions: competition binding, percent of control
Chain of PLK4 (O00444 whole entry): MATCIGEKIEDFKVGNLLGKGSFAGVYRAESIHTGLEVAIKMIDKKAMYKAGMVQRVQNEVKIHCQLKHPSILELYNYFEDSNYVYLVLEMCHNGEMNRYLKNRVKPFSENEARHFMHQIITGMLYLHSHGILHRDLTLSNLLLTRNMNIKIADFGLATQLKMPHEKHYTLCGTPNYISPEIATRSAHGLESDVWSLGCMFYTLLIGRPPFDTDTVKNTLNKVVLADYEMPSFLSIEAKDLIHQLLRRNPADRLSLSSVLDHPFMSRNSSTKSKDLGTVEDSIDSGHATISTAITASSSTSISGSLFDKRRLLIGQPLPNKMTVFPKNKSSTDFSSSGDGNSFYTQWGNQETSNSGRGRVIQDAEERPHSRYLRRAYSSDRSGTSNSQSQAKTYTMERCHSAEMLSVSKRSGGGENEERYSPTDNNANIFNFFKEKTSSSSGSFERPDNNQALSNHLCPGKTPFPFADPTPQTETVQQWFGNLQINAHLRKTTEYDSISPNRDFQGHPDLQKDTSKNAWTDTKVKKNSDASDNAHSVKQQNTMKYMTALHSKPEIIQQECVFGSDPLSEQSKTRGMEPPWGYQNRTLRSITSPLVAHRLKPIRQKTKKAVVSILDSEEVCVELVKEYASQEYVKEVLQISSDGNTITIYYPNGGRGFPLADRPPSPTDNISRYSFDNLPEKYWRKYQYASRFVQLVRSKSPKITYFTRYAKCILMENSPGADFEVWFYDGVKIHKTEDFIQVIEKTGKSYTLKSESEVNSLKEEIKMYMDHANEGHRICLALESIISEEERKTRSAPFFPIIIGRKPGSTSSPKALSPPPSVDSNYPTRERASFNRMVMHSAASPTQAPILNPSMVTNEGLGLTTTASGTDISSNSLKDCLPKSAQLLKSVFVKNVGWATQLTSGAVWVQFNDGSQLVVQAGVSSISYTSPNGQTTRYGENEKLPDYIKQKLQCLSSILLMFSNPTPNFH
Procedure: as §1

RET(V804L) = RET(V804L) (Homo sapiens, UniProt P07949, V804L); assay: biochemical; set-up: KINOMEscan scanMAX active site-directed competition binding assay, percent of control, 468 kinases; conditions: competition binding, percent of control
Chain of RET(V804L) (P07949 whole entry V804L): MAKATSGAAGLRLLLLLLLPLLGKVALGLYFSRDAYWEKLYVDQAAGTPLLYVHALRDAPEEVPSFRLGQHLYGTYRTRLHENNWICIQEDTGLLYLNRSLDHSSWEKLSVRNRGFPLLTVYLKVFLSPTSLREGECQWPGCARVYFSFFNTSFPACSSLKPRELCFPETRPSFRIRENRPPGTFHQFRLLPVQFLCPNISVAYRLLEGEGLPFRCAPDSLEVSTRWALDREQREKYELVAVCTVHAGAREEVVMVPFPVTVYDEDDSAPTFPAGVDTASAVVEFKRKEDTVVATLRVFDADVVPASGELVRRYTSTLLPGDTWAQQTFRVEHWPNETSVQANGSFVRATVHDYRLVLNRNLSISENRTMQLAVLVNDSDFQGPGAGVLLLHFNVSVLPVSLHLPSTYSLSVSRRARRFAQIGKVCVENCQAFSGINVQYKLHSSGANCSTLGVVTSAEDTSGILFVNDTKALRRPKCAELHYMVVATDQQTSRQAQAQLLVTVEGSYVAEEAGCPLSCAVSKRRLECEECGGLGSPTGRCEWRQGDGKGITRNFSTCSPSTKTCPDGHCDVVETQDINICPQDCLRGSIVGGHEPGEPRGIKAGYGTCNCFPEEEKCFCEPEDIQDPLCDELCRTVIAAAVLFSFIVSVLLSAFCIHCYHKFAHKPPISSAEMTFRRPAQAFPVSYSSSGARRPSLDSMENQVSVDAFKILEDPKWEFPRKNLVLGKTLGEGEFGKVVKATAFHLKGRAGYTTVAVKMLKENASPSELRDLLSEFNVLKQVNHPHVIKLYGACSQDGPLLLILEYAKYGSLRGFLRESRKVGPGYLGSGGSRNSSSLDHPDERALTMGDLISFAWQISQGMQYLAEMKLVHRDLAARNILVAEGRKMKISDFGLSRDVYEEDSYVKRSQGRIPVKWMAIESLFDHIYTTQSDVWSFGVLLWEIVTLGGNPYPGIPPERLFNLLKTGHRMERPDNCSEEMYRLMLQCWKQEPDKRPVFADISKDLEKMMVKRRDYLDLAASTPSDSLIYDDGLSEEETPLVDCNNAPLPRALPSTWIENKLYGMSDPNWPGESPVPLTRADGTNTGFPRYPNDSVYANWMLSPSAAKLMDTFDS
Procedure: as §1

p38-alpha = biological target: T1, p38-alpha (Homo sapiens, UniProt Q16539); assay: biochemical; set-up: KINOMEscan scanMAX active site-directed competition binding assay, percent of control, 468 kinases; conditions: competition binding, percent of control
T1 construct: gene MAPK14
Procedure: as §1

ANKK1 = ANKK1 (Homo sapiens, UniProt Q8NFD2); assay: biochemical; set-up: KINOMEscan scanMAX active site-directed competition binding assay, percent of control, 468 kinases; conditions: competition binding, percent of control
Procedure: as §1

IGF1R = IGF1R (Homo sapiens, UniProt P08069); assay: biochemical; set-up: KINOMEscan scanMAX active site-directed competition binding assay, percent of control, 468 kinases; conditions: competition binding, percent of control
Procedure: as §1

ICK = biological target: T2, ICK (Homo sapiens, UniProt Q9UPZ9); assay: biochemical; set-up: KINOMEscan scanMAX active site-directed competition binding assay, percent of control, 468 kinases; conditions: competition binding, percent of control
T2 construct: gene CILK1
T2 sequence (Q9UPZ9 whole entry): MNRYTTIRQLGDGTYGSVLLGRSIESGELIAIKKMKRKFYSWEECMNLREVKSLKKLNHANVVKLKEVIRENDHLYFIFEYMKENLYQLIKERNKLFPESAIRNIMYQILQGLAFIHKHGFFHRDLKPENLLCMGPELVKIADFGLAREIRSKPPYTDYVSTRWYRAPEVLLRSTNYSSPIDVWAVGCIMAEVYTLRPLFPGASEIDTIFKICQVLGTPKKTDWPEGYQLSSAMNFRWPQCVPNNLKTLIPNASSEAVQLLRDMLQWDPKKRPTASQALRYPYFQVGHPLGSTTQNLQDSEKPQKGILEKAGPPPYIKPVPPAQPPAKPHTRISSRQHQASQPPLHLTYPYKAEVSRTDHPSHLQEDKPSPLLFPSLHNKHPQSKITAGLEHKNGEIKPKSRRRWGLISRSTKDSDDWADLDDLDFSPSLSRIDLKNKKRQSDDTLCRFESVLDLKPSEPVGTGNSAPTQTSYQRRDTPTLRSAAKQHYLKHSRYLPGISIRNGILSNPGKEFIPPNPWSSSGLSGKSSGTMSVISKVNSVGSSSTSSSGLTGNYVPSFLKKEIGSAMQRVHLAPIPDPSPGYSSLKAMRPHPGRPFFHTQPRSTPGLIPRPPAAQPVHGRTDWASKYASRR
Procedure: as §1

MEK2 = biological target: T3, MEK2 (Homo sapiens, UniProt P36507); assay: biochemical; set-up: KINOMEscan scanMAX active site-directed competition binding assay, percent of control, 468 kinases; conditions: competition binding, percent of control
T3 construct: gene MAP2K2
T3 sequence (P36507 whole entry): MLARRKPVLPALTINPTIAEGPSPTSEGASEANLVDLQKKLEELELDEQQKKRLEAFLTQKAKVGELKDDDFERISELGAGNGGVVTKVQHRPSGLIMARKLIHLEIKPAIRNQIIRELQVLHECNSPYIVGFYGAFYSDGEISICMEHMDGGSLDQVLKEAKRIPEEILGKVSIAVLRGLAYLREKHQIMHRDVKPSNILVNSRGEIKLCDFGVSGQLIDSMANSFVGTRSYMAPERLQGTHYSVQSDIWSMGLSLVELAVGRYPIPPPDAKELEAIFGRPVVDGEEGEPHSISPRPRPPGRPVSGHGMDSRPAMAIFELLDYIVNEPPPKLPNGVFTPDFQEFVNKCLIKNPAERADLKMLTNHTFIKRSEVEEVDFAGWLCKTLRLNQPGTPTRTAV
Procedure: as §1

DCAMKL2 = biological target: T4, DCAMKL2 (Homo sapiens, UniProt Q8N568); assay: biochemical; set-up: KINOMEscan scanMAX active site-directed competition binding assay, percent of control, 468 kinases; conditions: competition binding, percent of control
T4 construct: gene DCLK2
Procedure: as §1

SRMS = SRMS (Homo sapiens, UniProt Q9H3Y6); assay: biochemical; set-up: KINOMEscan scanMAX active site-directed competition binding assay, percent of control, 468 kinases; conditions: competition binding, percent of control
Procedure: as §1

BMX = BMX (Homo sapiens, UniProt P51813); assay: biochemical; set-up: KINOMEscan scanMAX active site-directed competition binding assay, percent of control, 468 kinases; conditions: competition binding, percent of control
Procedure: as §1

IKK-epsilon = biological target: T5, IKK-epsilon (Homo sapiens, UniProt Q14164); assay: biochemical; set-up: KINOMEscan scanMAX active site-directed competition binding assay, percent of control, 468 kinases; conditions: competition binding, percent of control
T5 construct: gene IKBKE
Procedure: as §1

DCAMKL3 = biological target: T6, DCAMKL3 (Homo sapiens, UniProt Q9C098); assay: biochemical; set-up: KINOMEscan scanMAX active site-directed competition binding assay, percent of control, 468 kinases; conditions: competition binding, percent of control
T6 construct: gene DCLK3
Procedure: as §1

MYO3B = MYO3B (Homo sapiens, UniProt Q8WXR4); assay: biochemical; set-up: KINOMEscan scanMAX active site-directed competition binding assay, percent of control, 468 kinases; conditions: competition binding, percent of control
Procedure: as §1

WNK2 = WNK2 (Homo sapiens, UniProt Q9Y3S1); assay: biochemical; set-up: KINOMEscan scanMAX active site-directed competition binding assay, percent of control, 468 kinases; conditions: competition binding, percent of control
Procedure: as §1

NLK = NLK (Homo sapiens, UniProt Q9UBE8); assay: biochemical; set-up: KINOMEscan scanMAX active site-directed competition binding assay, percent of control, 468 kinases; conditions: competition binding, percent of control
Procedure: as §1

HIPK2 = HIPK2 (Homo sapiens, UniProt Q9H2X6); assay: biochemical; set-up: KINOMEscan scanMAX active site-directed competition binding assay, percent of control, 468 kinases; conditions: competition binding, percent of control
Procedure: as §1

EPHA8 = EPHA8 (Homo sapiens, UniProt P29322); assay: biochemical; set-up: KINOMEscan scanMAX active site-directed competition binding assay, percent of control, 468 kinases; conditions: competition binding, percent of control
Procedure: as §1

LRRK2 = LRRK2 (Homo sapiens, UniProt Q5S007); assay: biochemical; set-up: KINOMEscan scanMAX active site-directed competition binding assay, percent of control, 468 kinases; conditions: competition binding, percent of control
Procedure: as §1

[1] = biological target: T7, Tyrosine kinase 2 TK2 (JH2 domain pseudokinase) (Homo sapiens, UniProt P29597); assay: KINOMEscan competition binding, single concentration […]; conditions: read-out: % of control at 100 μM
T7 construct: gene TYK2; JH2 domain pseudokinase
T7 sequence (P29597 589-875 limits assumed): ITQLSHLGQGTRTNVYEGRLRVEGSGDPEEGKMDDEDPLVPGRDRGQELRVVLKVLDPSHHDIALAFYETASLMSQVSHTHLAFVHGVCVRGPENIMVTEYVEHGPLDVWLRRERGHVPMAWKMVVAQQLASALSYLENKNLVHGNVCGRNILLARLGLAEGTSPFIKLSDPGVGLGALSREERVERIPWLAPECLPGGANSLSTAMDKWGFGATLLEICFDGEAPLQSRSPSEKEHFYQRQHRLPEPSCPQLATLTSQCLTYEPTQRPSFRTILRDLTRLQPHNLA

C=C(C)[C@H]1CC=C(C)C(=O)C1 [S-carvone]
remaining binding at 100 µM (HASPIN): 74%
remaining binding at 100 µM (PIM2): 86%
remaining binding at 100 µM (MAP3K15): 93%
remaining binding at 100 µM (PLK4): 76%
remaining binding at 100 µM (RET(V804L)): 87%
remaining binding at 100 µM (p38-alpha): 100%
remaining binding at 100 µM (ANKK1): 91%
remaining binding at 100 µM (IGF1R): 82%
remaining binding at 100 µM (ICK): 97%
remaining binding at 100 µM (MEK2): 86%
remaining binding at 100 µM (DCAMKL2): 87%
remaining binding at 100 µM (SRMS): 76%
remaining binding at 100 µM (BMX): 67%
remaining binding at 100 µM (IKK-epsilon): 52%
remaining binding at 100 µM (DCAMKL3): 75%
remaining binding at 100 µM (MYO3B): 94%
remaining binding at 100 µM (WNK2): 77%
remaining binding at 100 µM (NLK): 81%
remaining binding at 100 µM (HIPK2): 76%
remaining binding at 100 µM (EPHA8): 91%
remaining binding at 100 µM (LRRK2): 100%
remaining binding at 100 µM [1]: 27%
